In BindingDB's records for doi:10.1021/jm0208119 (Westfälische Wilhelms-Universität Münster, 2002):

Molecular target: histone deacetylase HD-1, RPD3 homologue (Zea mays)
Assay: Inhibition of in vitro enzyme activity measured in a highly purified maize Histone deacetylase 1 preparation

Row | SMILES | IC50
1 | O=C(CCCCCCC(=O)N[C@@H](Cc1ccccc1)C(=O)NCc1ccccc1)NO [Octanedioic acid ((S)-1-benzylcarbamoyl-2-phenyl-ethyl)-amide hydroxyamide] | 40 nM
2 | O=C(CCCCCCC(=O)N[C@@H](Cc1ccccc1)C(=O)NCCc1ccccc1)NO [Octanedioic acid hydroxyamide ((S)-1-phenethylcarbamoyl-2-phenyl-ethyl)-amide] | 25 nM
